Earlier results as cited in patent EP1530463B1, “L-ARGININE CONTAINING PHARMACEUTICAL COMPOSITION” (Vasopharm Biotech GmbH, priority 2002, dated 2004).
Read-outs that look alike come from different tables or passages of the source.

Row | Compound | pKa (guanidino group) | pKa (organic acid)
1 | N=C(N)NCCC[C@H](N)C(=O)O [L-arginine] | 12.48 | 
2 | O=C1O[C@H]([C@@H](O)CO)C(O)=C1O [ascorbic acid] |  | 4.17
